± gives the standard deviation of the averaged measurements.
Columns and labels:
Experiment in all cases: level (log10 ratio to DMSO vehicle control); higher = higher biomarker level / cell amount than vehicle control
[1] = compound: OCC(F)(F)C(F)(F)C(F)(F)C(F)(F)C(F)(F)C(F)(F)C(F)(F)C(F)(F)CO [1H,1H,10H,10H-Perfluorodecane-1,10-diol]; conditions: in DMSO
Procedure: (§1)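 BioMAP Diversity Plus panel of 12 human primary cell co-culture systems (3C, 4H, LPS, SAg, BT, BF4T, BE3C, CASM3C, HDF3CGF, KF3CT, MyoF, Mphg). Compounds were added 1 h before stimulation and left for 24 h (MyoF 48 h; BT 72 h for soluble read-outs or 6 d for IgG). Biomarkers were read by ELISA, cytotoxicity by SRB, PBMC viability and proliferation by Alamar Blue. Each well value was divided by the mean of 8 DMSO control wells on the same plate and log10 transformed; duplicate blinded samples were tested at 4 concentrations.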

Perfluorooctanoic acid = compound: O=C(O)C(F)(F)C(F)(F)C(F)(F)C(F)(F)C(F)(F)C(F)(F)C(F)(F)F [Perfluorooctanoic acid]; conditions: in DMSO
Procedure: as §1

[2] = compound: OCCC(F)(F)C(F)(F)C(F)(F)C(F)(F)C(F)(F)C(F)(F)C(F)(F)C(F)(F)F [8:2 Fluorotelomer alcohol]; conditions: 6700 nM; in DMSO
Procedure: as §1

[3] = compound: C=CC(=O)OCC(F)(F)C(F)(F)C(F)(F)C(F)(F)COC(=O)C=C [1H,1H,6H,6H-Perfluorohexane-1,6-diol diacrylate]; conditions: 6700 nM; in DMSO
Procedure: as §1

[4] = compound: C=C(C)C(=O)OCC(F)(F)C(F)(F)C(F)(F)F [2,2,3,3,4,4,4-Heptafluorobutyl methacrylate]; conditions: in DMSO
Procedure: as §1

Perfluoropinacol = compound: OC(C(F)(F)F)(C(F)(F)F)C(O)(C(F)(F)F)C(F)(F)F [Perfluoropinacol]; conditions: in DMSO
Procedure: as §1

[5] = compound: O=S(=O)(OCC(F)(F)F)C(F)(F)C(F)(F)C(F)(F)C(F)(F)F [2,2,2-Trifluoroethyl perfluorobutanesulfonate]; conditions: in DMSO
Procedure: as §1

[6] = compound: Cc1ccc(S(=O)(=O)OCC(F)(F)C(F)(F)C(F)(F)C(F)(F)C(F)(F)C(F)F)cc1 [1H,1H,7H-Perfluoroheptyl 4-methylbenzenesulfonate]; conditions: in DMSO
Procedure: as §1

| Test System | level (log10) ([1]; 6700 nM) | level (log10) ([1]; 20000 nM) | level (log10) ([1]; 60000 nM) | level (log10) (Perfluorooctanoic acid; 6700 nM) | level (log10) (Perfluorooctanoic acid; 20000 nM) | level (log10) (Perfluorooctanoic acid; 60000 nM) | level (log10) [2] | level (log10) [3] | level (log10) ([4]; 6700 nM) | level (log10) ([4]; 20000 nM) | level (log10) ([4]; 60000 nM) | level (log10) (Perfluoropinacol; 6700 nM) | level (log10) (Perfluoropinacol; 20000 nM) | level (log10) ([5]; 6700 nM) | level (log10) ([5]; 20000 nM) | level (log10) ([5]; 60000 nM) | level (log10) ([6]; 6700 nM) | level (log10) ([6]; 20000 nM) | level (log10) ([6]; 60000 nM) |
| --- | --- | --- | --- | --- | --- | --- | --- | --- | --- | --- | --- | --- | --- | --- | --- | --- | --- | --- | --- |
| BF4T:PAI-I | -0.021 ± 0.021 | -0.111 ± 0.0021 | -0.156 | 0.0005 ± 0.0021 | 0.0015 ± 0.0021 | -0.007 ± 0.0099 | -0.0135 ± 0.0035 | -0.015 ± 0.0014 | -0.0035 ± 0.00071 | 0.0015 ± 0.0064 | 0.007 | -0.0315 ± 0.0035 | -0.0845 ± 0.0064 | -0.0035 ± 0.0035 | -0.0075 ± 0.00071 | -0.0025 ± 0.0021 | -0.0075 ± 0.025 | -0.0295 ± 0.011 | -0.0315 ± 0.0035 |
| 4H:VEGFR2 | -0.0455 ± 0.07 | -0.0125 ± 0.0092 | 0.055 | 0.019 ± 0.0099 | 0.0055 ± 0.042 | 0.0205 ± 0.033 | 0.0185 ± 0.0064 | -0.0605 ± 0.00071 | -0.0065 ± 0.03 | 0.01 | 0.0085 ± 0.0021 | -0.02 ± 0.023 | -0.138 ± 0.064 | -0.0285 ± 0.03 | 0.0005 ± 0.019 | 0.025 ± 0.0014 | 0.005 ± 0.018 | 0.017 ± 0.011 | 0.01 |
| LPS:CD62E/E-Selectin | -0.064 ± 0.04 | -0.0475 ± 0.0021 | -0.038 | 0.009 ± 0.017 | -0.01 ± 0.02 | 0.029 ± 0.016 | 0.012 ± 0.018 | -0.0155 ± 0.0035 | 0.001 ± 0.0071 | 0.0075 ± 0.026 | -0.0015 ± 0.0035 | 0.003 ± 0.0085 | -0.027 ± 0.028 | 0.0025 ± 0.019 | -0.004 ± 0.02 | -0.0795 ± 0.043 | 0.001 ± 0.0057 | 0.012 ± 0.027 | 0.0375 ± 0.0078 |
| LPS:CXCL8/IL-8 | -0.0065 ± 0.023 | 0.006 ± 0.0042 | 0.051 | 0.0155 ± 0.021 | 0.033 ± 0.014 | 0.146 ± 0.057 | -0.0375 ± 0.029 | -0.0205 ± 0.028 | -0.001 ± 0.016 | 0.0055 ± 0.012 | 0.0145 ± 0.0092 | -0.003 ± 0.0028 | -0.0315 ± 0.0021 | -0.004 ± 0.034 | -0.002 ± 0.0099 | -0.0205 ± 0.026 | 0.0265 ± 0.015 | 0.008 ± 0.014 | 0.0195 ± 0.0021 |
| LPS:sPGE2 | -0.0125 ± 0.03 | 0.0375 ± 0.0078 | 0.025 | 0.0065 ± 0.016 | -0.067 ± 0.02 | -0.159 ± 0.064 | -0.11 ± 0.033 | -0.0195 ± 0.0064 | 0.05 ± 0.042 | -0.009 ± 0.024 | 0.076 ± 0.014 | 0.086 ± 0.038 | 0.182 ± 0.015 | 0.049 ± 0.02 | -0.006 ± 0.038 | -0.024 ± 0.018 | -0.0185 ± 0.03 | -0.023 ± 0.024 | 0.003 ± 0.058 |
| BE3C:CXCL9/MIG | -0.0105 ± 0.0021 | -0.0495 ± 0.0021 | -0.53 | -0.0025 ± 0.0035 | -0.0045 ± 0.005 | 0.002 ± 0.018 | -0.0095 ± 0.00071 | -0.0075 ± 0.011 | 0.003 ± 0.0085 | 0.0025 ± 0.0035 | 0.01 ± 0.0071 | -0.0045 ± 0.015 | 0.002 ± 0.0071 | 0.031 ± 0.0085 | 0.0065 ± 0.0078 | 0.0135 ± 0.0021 | 0.005 ± 0.016 | -0.001 ± 0.0028 | 0.0005 ± 0.021 |
| LPS:SRB | 0.0005 ± 0.016 | -0.012 ± 0.017 | -0.042 | -0.01 ± 0.011 | 0.0085 ± 0.012 | -0.0265 ± 0.0064 | -0.0125 ± 0.011 | -0.0065 ± 0.0092 | -0.012 ± 0.0014 | -0.0075 ± 0.0021 | 0.002 ± 0.0042 | -0.0265 ± 0.0021 | -0.151 ± 0.0064 | 0.007 ± 0.0014 | -0.0035 ± 0.0092 | -0.004 ± 0.0071 | 0.006 ± 0.0099 | -0.0075 ± 0.00071 | -0.031 ± 0.0042 |
| SAg:CCL2/MCP-1 | -0.0145 ± 0.0092 | -0.02 ± 0.0042 | -0.008 | 0.0005 ± 0.0021 | 0.0025 ± 0.011 | 0.048 ± 0.0057 | 0.0025 ± 0.0035 | -0.0875 ± 0.04 | 0.0075 ± 0.012 | -0.011 ± 0.0028 | 0.017 ± 0.011 | 0.078 ± 0.018 | -0.096 ± 0.0085 | 0.0045 ± 0.0064 | 0.0045 ± 0.019 | 0.0405 ± 0.033 | -0.024 ± 0.016 | -0.027 ± 0.011 | -0.021 ± 0.023 |
| BT:sIL-17A | -0.0865 ± 0.012 | -0.208 ± 0.24 | -0.729 | 0.009 ± 0.048 | -0.165 ± 0.11 | -0.0845 ± 0.12 | -0.034 ± 0.12 | -0.863 ± 0.015 | -0.0665 ± 0.11 | 0.042 ± 0.065 | 0.0245 ± 0.086 | -0.177 ± 0.11 | -0.642 ± 0.061 | 0.053 ± 0.2 | 0.214 ± 0.093 | 0.184 ± 0.1 | 0.093 ± 0.0099 | 0.037 ± 0.045 | -0.117 ± 0.12 |
